Experimental data reported in publication PMC12638379, “An innovative approach to development of new pyrazolylquinolin-2-one hybrids as dual EGFR and BRAF^V600E inhibitors” (Molecular Diversity, 2025).
Where two headings read alike, the source gives them in different places.

Tests used:
NCI 60 cancer cell lines = assay: NCI anticancer screening over a panel of 60 cancer cells, single concentration 10 µM; assay type: cell-based, human; details: Homo sapiens, read-out: % Growth Inhibition (GI %)
Summary of the method: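 Primary single-dose screen at 10 µM over the NCI panel of 60 human tumour cell lines (leukemia, CNS, lung, colon, kidney, ovary, breast, prostate). The standard NCI Developmental Therapeutics Program protocol was used.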

[1] = MTT cytotoxicity on normal cell line WI-38; details: human, WI-38 normal cells, % viability
normal cell line WI-38 = assay: MTT cytotoxicity on normal cell line WI-38
[2] = tested on: breast cancer (T47D) cell line; assay: MTT antiproliferative assay, T-47D
Summary of the method: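 HOP-92, MOLT-4 and T-47D cells in DMEM/10% FBS/insulin exposed 24 h to serial 10-fold dilutions […]; MTT added 2–4 h, absorbance at 570 nm with 690 nm background subtraction. Percent viable cells gives IC50; GI50 is the average IC50 across the three lines.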

BRAF^V600E = BRAF^V600E (Homo sapiens, UniProt P15056, V600E); assay: BRAF^V600E inhibitory assay (B-Raf (V600E) Kinase Assay); assay type: biochemical; details: read-out: BRAF^V600E inhibition IC50 ± SEM
Chain of BRAF^V600E (P15056 whole entry V600E): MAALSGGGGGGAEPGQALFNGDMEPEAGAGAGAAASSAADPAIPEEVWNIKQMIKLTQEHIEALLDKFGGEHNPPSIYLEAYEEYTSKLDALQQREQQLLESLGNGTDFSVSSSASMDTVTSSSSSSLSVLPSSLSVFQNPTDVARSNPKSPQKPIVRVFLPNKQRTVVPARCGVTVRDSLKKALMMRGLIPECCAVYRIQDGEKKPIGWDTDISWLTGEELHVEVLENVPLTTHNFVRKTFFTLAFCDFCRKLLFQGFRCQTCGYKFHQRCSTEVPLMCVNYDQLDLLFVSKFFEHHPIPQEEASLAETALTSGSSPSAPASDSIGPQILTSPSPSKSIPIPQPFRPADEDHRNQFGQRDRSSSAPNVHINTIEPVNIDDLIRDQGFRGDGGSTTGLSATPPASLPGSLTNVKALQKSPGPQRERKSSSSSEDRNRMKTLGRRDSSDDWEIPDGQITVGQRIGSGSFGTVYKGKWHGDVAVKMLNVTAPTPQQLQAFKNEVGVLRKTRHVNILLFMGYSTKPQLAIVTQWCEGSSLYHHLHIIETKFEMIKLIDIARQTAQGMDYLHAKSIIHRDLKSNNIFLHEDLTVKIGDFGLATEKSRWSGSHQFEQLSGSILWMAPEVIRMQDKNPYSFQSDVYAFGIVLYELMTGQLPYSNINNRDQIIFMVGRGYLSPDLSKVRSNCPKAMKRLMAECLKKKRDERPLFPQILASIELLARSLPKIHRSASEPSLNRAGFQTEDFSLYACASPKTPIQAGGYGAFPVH

[3] = tested on: leukemia (MOLT-4) cell line; assay: MTT antiproliferative assay, MOLT-4; assay type: cell-based, human
Procedure: After 24 h of culture incubation and supernatants discarded.

EGFR = target: T1, EGFR (Homo sapiens, UniProt P00533); assay: EGFR inhibitory assay; assay type: biochemical; details: for %inh: EGFR, unit not given
T1 construct: EGFR cytoplasmic domain (EGFR-CD, amino acids 645–1186); His6 (N); made in house; host or cells: Sf-9 insect cells (baculovirus)
T1 sequence (P00533 669-1210): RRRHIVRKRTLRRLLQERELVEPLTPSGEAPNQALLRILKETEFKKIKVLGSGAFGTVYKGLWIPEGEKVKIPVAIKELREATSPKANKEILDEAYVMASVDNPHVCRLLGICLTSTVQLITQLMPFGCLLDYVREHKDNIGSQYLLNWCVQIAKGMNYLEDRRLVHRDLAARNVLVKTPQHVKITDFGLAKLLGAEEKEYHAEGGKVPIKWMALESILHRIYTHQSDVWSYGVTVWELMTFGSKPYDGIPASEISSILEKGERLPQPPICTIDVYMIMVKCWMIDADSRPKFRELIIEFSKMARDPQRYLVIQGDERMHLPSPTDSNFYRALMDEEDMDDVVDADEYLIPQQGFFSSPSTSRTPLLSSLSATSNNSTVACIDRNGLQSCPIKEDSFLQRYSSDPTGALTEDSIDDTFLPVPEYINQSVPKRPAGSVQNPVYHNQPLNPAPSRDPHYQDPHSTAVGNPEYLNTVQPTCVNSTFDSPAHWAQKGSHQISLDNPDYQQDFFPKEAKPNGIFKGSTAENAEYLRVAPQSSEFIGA

C/C(=N\Nc1ccc(C(=O)O)cc1)c1cnn(-c2cc(=O)[nH]c3ccccc23)c1C [Compound 4f, (E)-4-(2-(1-(5-methyl-1-(2-oxo-1,2-dihydroquinolin-4-yl)-1H-pyrazol-4-yl)ethylidene) hydrazineyl)benzoic acid]
inhibition at 10 µM (NCI 60 cancer cell lines; 786-0, Renal cancer 786-0, 10 μM): < 5%
inhibition at 10 µM (NCI 60 cancer cell lines; A498, Renal cancer A498, 10 μM): < 5%
inhibition at 10 µM (NCI 60 cancer cell lines; A549, Non-small cell lung cancer A549/ATCC, 10 μM): < 5%
inhibition at 10 µM (NCI 60 cancer cell lines; ACHN, Renal cancer ACHN, 10 μM): 5.83%
inhibition at 10 µM (NCI 60 cancer cell lines; BT-549, Breast cancer BT-549, 10 μM): < 5%
inhibition at 10 µM (NCI 60 cancer cell lines; CAKI-1, Renal cancer CAKI-1, 10 μM): 16.1%
inhibition at 10 µM (NCI 60 cancer cell lines; CCRF-CEM, Leukemia CCRF-CEM, 10 μM): < 5%
inhibition at 10 µM (NCI 60 cancer cell lines; COLO 205, Colon cancer COLO 205, 10 μM): < 5%
inhibition at 10 µM (NCI 60 cancer cell lines; DU-145, Prostate cancer DU-145, 10 μM): < 5%
inhibition at 10 µM (NCI 60 cancer cell lines; EKVX, Non-small cell lung cancer EKVX, 10 μM): < 5%
inhibition at 10 µM (NCI 60 cancer cell lines; HCC 2998, Colon cancer HCC-2998, 10 μM): < 5%
inhibition at 10 µM (NCI 60 cancer cell lines; HCT-15, Colon cancer HCT-15, 10 μM): < 5%
inhibition at 10 µM (NCI 60 cancer cell lines; HCT-116, Colon cancer HCT-116, 10 μM): < 5%
inhibition at 10 µM (NCI 60 cancer cell lines; HL-60, Leukemia HL-60(TB), 10 μM): < 5%
inhibition at 10 µM (NCI 60 cancer cell lines; HOP-62, Non-small cell lung cancer HOP-62, 10 μM): 8.55%
inhibition at 10 µM (NCI 60 cancer cell lines; HOP-92, Non-small cell lung cancer HOP-92, 10 μM): 79.8%
inhibition at 10 µM (NCI 60 cancer cell lines; HT-29, Colon cancer HT29, 10 μM): < 5%
inhibition at 10 µM (NCI 60 cancer cell lines; Hs-578T, Breast cancer HS 578T, 10 μM): 12.3%
inhibition at 10 µM (NCI 60 cancer cell lines; IGROV-1, Ovarian cancer IGROV1, 10 μM): < 5%
inhibition at 10 µM (NCI 60 cancer cell lines; K562, Leukemia K-562, 10 μM): < 5%
inhibition at 10 µM (NCI 60 cancer cell lines; KM12, Colon cancer KM12, 10 μM): < 5%
inhibition at 10 µM (NCI 60 cancer cell lines; LOX IMVI, Melanoma LOX IMVI, 10 μM): 10.8%
inhibition at 10 µM (NCI 60 cancer cell lines; Leukemia SR, 10 μM): 12.2%
inhibition at 10 µM (NCI 60 cancer cell lines; MCF7, Breast cancer MCF7, 10 μM): 5.99%
inhibition at 10 µM (NCI 60 cancer cell lines; MDA-MB-231, Breast cancer MDA-MB-231/ATCC, 10 μM): 12.5%
inhibition at 10 µM (NCI 60 cancer cell lines; MDA-MB-435, Melanoma MDA-MB-435, 10 μM): < 5%
inhibition at 10 µM (NCI 60 cancer cell lines; MDA-MB-468, Breast cancer MDA-MB-468, 10 μM): < 5%
inhibition at 10 µM (NCI 60 cancer cell lines; MOLT-4, Leukemia MOLT-4, 10 μM): < 5%
inhibition at 10 µM (NCI 60 cancer cell lines; Melanoma M14, 10 μM): 8.95%
inhibition at 10 µM (NCI 60 cancer cell lines; Melanoma MALM-3M, 10 μM): 9.22%
inhibition at 10 µM (NCI 60 cancer cell lines; NCI-H23, Non-small cell lung cancer NCI-H23, 10 μM): 7.19%
inhibition at 10 µM (NCI 60 cancer cell lines; NCI-H226, Non-small cell lung cancer NCI-H226, 10 μM): 10.9%
inhibition at 10 µM (NCI 60 cancer cell lines; NCI-H322M, Non-small cell lung cancer NCI-H322M, 10 μM): < 5%
inhibition at 10 µM (NCI 60 cancer cell lines; NCI-H460, Non-small cell lung cancer NCI-H460, 10 μM): < 5%
inhibition at 10 µM (NCI 60 cancer cell lines; NCI-H522, Non-small cell lung cancer NCI-H522, 10 μM): 13.9%
inhibition at 10 µM (NCI 60 cancer cell lines; NCI/ADR-RES, Ovarian cancer NCI/ADR-RES, 10 μM): < 5%
inhibition at 10 µM (NCI 60 cancer cell lines; OVCAR-3, Ovarian cancer OVCAR-3, 10 μM): < 5%
inhibition at 10 µM (NCI 60 cancer cell lines; OVCAR-4, Ovarian cancer OVCAR-4, 10 μM): 7.33%
inhibition at 10 µM (NCI 60 cancer cell lines; OVCAR-5, Ovarian cancer OVCAR-5, 10 μM): < 5%
inhibition at 10 µM (NCI 60 cancer cell lines; OVCAR-8, Ovarian cancer OVCAR-8, 10 μM): < 5%
inhibition at 10 µM (NCI 60 cancer cell lines; Prostate cancer PC-3, 10 μM): 12.4%
inhibition at 10 µM (NCI 60 cancer cell lines; RPMI-8226, Leukemia RPMI-8226, 10 μM): < 5%
inhibition at 10 µM (NCI 60 cancer cell lines; RXF 393, Renal cancer RXF 393, 10 μM): 11.1%
inhibition at 10 µM (NCI 60 cancer cell lines; SF-268, CNS Cancer SF-268, 10 μM): < 5%
inhibition at 10 µM (NCI 60 cancer cell lines; SF-295, CNS Cancer SF-295, 10 μM): < 5%
inhibition at 10 µM (NCI 60 cancer cell lines; SF-539, CNS Cancer SF-539, 10 μM): < 5%
inhibition at 10 µM (NCI 60 cancer cell lines; SK-MEL-2, Melanoma SK-MEL-2, 10 μM): < 5%
inhibition at 10 µM (NCI 60 cancer cell lines; SK-MEL-5, Melanoma SK-MEL-5, 10 μM): < 5%
inhibition at 10 µM (NCI 60 cancer cell lines; SK-MEL-28, Melanoma SK-MEL-28, 10 μM): < 5%
inhibition at 10 µM (NCI 60 cancer cell lines; SK-OV-3, Ovarian cancer SK-OV-3, 10 μM): < 5%
inhibition at 10 µM (NCI 60 cancer cell lines; SN12C, Renal cancer SN12C, 10 μM): < 5%
inhibition at 10 µM (NCI 60 cancer cell lines; SNB-19, CNS Cancer SNB-19, 10 μM): < 5%
inhibition at 10 µM (NCI 60 cancer cell lines; SNB-75, CNS Cancer SNB-75, 10 μM): 12.9%
inhibition at 10 µM (NCI 60 cancer cell lines; SW-620, Colon cancer SW-620, 10 μM): < 5%
inhibition at 10 µM (NCI 60 cancer cell lines; T47D, Breast cancer T-47D, 10 μM): < 5%
inhibition at 10 µM (NCI 60 cancer cell lines; TK-10, Renal cancer TK-10, 10 μM): < 5%
inhibition at 10 µM (NCI 60 cancer cell lines; U-251, CNS Cancer U251, 10 μM): < 5%
inhibition at 10 µM (NCI 60 cancer cell lines; UACC-62, Melanoma UACC-62, 10 μM): 6.43%
inhibition at 10 µM (NCI 60 cancer cell lines; UACC-257, Melanoma UACC-257, 10 μM): < 5%
inhibition at 10 µM (NCI 60 cancer cell lines; UO-31, Renal cancer UO-31, 10 μM): 45.2%
viability at 24 h, 0.4 µM ([1]; WI38, 0.4uM (log conc. -0.41)): 80%
viability at 24 h, 1.6 µM ([1]; WI38, 1.6uM (log conc. 0.19)): 74.5%
viability at 24 h, 6.3 µM ([1]; WI38, 6.3uM (log conc. 0.8)): 65.4%
viability at 24 h, 25 µM ([1]; WI38, 25uM (log conc. 1.4)): 54.9%
viability at 24 h, 100 µM ([1]; WI38, 100uM (log conc. 2)): 41.6%
IC50 (normal cell line WI-38; Homo sapiens, read-out: Antiproliferative activity IC50 ± SEM): 42.1 ± 1.68 µM
% viability (normal cell line WI-38; WI38, 0.4uM (log conc. -0.41), listed as ws6, 0.4 µM): 79.9762%
% viability (normal cell line WI-38; WI38, 1.6uM (log conc. 0.19), listed as ws6, 1.6 µM): 74.5098%
% viability (normal cell line WI-38; WI38, 6.3uM (log conc. 0.8), listed as ws6, 6.3 µM): 65.3595%
% viability (normal cell line WI-38; WI38, 100uM (log conc. 2), listed as ws6, 100 µM): 41.5924%
viability at 0.4 µM ([2]; Homo sapiens, T47D, T-47D, MTT, 0.4uM): 78.6%
viability at 1.6 µM ([2]; Homo sapiens, T47D, T-47D, MTT, 1.6uM): 72.1%
viability at 6.3 µM ([2]; Homo sapiens, T47D, T-47D, MTT, 6.3uM): 61.4%
viability at 25 µM ([2]; Homo sapiens, T47D, T-47D, MTT, 25uM): 50.1%
viability at 100 µM ([2]; Homo sapiens, T47D, T-47D, MTT, 100uM): 41.1%
IC50 ([2]; Homo sapiens, T47D, read-out: Antiproliferative activity IC50 ± SEM, T-47D, MTT): 28.6 ± 0.99 µM
% viability ([2]; T-47D, MTT, 1.6uM, listed as ws6, 1.6 µM): 72.1271%
% viability ([2]; T-47D, MTT, 6.3uM, listed as ws6, 6.3 µM): 61.3692%
% viability ([2]; T-47D, MTT, 100uM, listed as ws6, 100 µM): 41.0758%
IC50 (BRAF^V600E): 0.41 ± 0.016 µM
viability at 0.4 µM ([3]; Homo sapiens, MOLT-4, MOLT-4, MTT, 0.4uM): 70.3%
viability at 1.6 µM ([3]; Homo sapiens, MOLT-4, MOLT-4, MTT, 1.6uM): 59.6%
viability at 6.3 µM ([3]; Homo sapiens, MOLT-4, MOLT-4, MTT, 6.3uM): 58.5%
viability at 25 µM ([3]; Homo sapiens, MOLT-4, MOLT-4, MTT, 25uM): 48.1%
viability at 100 µM ([3]; Homo sapiens, MOLT-4, MOLT-4, MTT, 100uM): 39.1%
IC50 ([3]; Homo sapiens, MOLT-4, MTT, read-out: Antiproliferative activity IC50 ± SEM, MOLT-4): 16.3 ± 0.65 µM
% viability ([3]; MOLT-4, MTT, 0.4uM, listed as ws6, 0.4 µM): 70.3059%
% viability ([3]; MOLT-4, MTT, 1.6uM, listed as ws6, 1.6 µM): 59.5561%
% viability ([3]; MOLT-4, MTT, 6.3uM, listed as ws6, 6.3 µM): 58.5483%
% viability ([3]; MOLT-4, MTT, 100uM, listed as ws6, 100 µM): 39.1122%
%inh (EGFR; conc 0.01 (log -2)): 10.6%
%inh (EGFR; conc 0.1 (log -1)): 26%
%inh (EGFR; conc 1 (log 0)): 61.8%
%inh (EGFR; conc 10 (log 1)): 80.6%
%inh (EGFR; conc 100 (log 2)): 92.1%
IC50 (EGFR; read-out: EGFR inhibition IC50 ± SEM): 0.64 ± 0.023 µM
